According to patent US20090081775A1, “Microscope system and screening method for drugs, physical therapies and biohazards” (Stiftesen Unversitetsforskning Bergen, priority 2005, published 2009):
Where “and” joins values, the source holds several entries; their conditions need not be identical. Equal values may be shown once.

Tested on: PC12 cells
Assay: Segmentation of WGA stained PC12 cells treated with thymidine (cell size by automated 3D segmentation)
Type: cell-based, rat
Procedure: PC12 and NRK cells were cultured in DMEM supplemented with 10% fetal calf serum and 5% horse serum. For high-resolution fluorescence microscopy and light microscope analysis, PC 12 cells were plated in LabTek™ chambered swell cover glasses (Nalge Nunc Int., Wiesbaden, Germany). Two hours after plating, the cells were stained with two dyes. For the experiments in which the effect of thymidine on cellular size and morphology was investigated, PC12 cells were plated on LabTek™ chambered swell cover glasses. 24 hours after plating, fresh growth medium containing 4 mM thymidine (Sigma) was added to the cells. In the control condition, fresh growth medium without thymidine was used. 24 hours afterwards cells were washed once with prewarmed fresh growth medium and grown further in growth medium without thymidine. […] To specifically display cell borders, cells were stained with wheat germ agglutinin (WGA) conjugated to either AlexaFluor™488 or AlexaFluor™594 (Invitrogen). WGA-AlexaFluor™594 is a lectin which binds glycogenfugates like N-acetylglucosamine and therefore stains biological membranes efficiently. CellTracker™ (CellTracker™, Molecular Probes Inc., Eugene, Oreg., USA) passes freely through cell membranes, but once inside a cell, it is transformed into cell-impermeant reaction products and is retained in living cells through several generations. […]
High resolution, […] fluorescence microscopy was performed with an Olympus IX70 microscope (Olympus Optical Co. Europa GmbH, Hamburg) or a Zeiss Axiovert 200M (Bergman A S, Lilleström, Norway) both equipped with 100× oil-immersion objectives, monochromator-based illumination systems (T.I.L.L. Photonics GmbH, Martinsried, Germany), tripleband filtersets DAPI/FITC/TRITC F61-020 (AHF Analysetechnik AG, Tübingen, Germany) and piezo z-steppers (Physik Instrumente GmbH & Co., Karlsruhe, Germany). […] With both the wide-field and confocal imaging setups, WGA-stained cells were analyzed in 3D by acquiring single focal planes 300 to 400 nm apart from each other in the z-direction spanning the whole cellular volume. […]

[1] = 4 mM thymidine for 24 hours, then 24 hours without, mid plane 2D, mean and SEM, three experiments, listed as tymidine

With `Cc1cn([C@H]2C[C@H](O)[C@@H](CO)O2)c(=O)[nH]c1=O` [thymidine] the “Dmaj (+): mean major axis length, treated group” value [1] was 15.26 + 0.40 μm and 16.79 + 0.32 μm and 15.83 + 0.25 μm, the “Dmin (+): mean minor axis length, treated group” value [1] was 9.98 + 0.32 μm and 9.21 + 0.19 μm and 9.01 + 0.18 μm and the “mean size of a cell treated with thymidine compared to a control group” value (conclusion from three experiments) was “increase”.
